Primed or numbered codes have the meaning given here. No end group written: not given here. *: point of attachment. Dabcyl′ = N-terminal Dabcyl quencher, CN(C)c1ccc(/N=N/c2ccc(C(=O)*)cc2)cc1
Experiments:
BRD4/Histone H3.3 = BRD4/Histone H3.3 (Homo sapiens, UniProt O60885); experiment: Inhibition of NLpoly11S-BRD4 / Histone H3.3-NLpep114 interaction in HEK293T cells (Example 128)
HELA cells = experiment: NLpep86-tagged firefly luciferase constructs in HELA cells detected with NLpoly11S reagent or Fluc activity (Example 141); type: cell-based; conditions: 48 hours after transfection
Protocol: Validating the Use of Spontaneously Interacting NLpep86 as an Epitope Tag for Proteins Degraded by the Proteasome Experiments were conducted during development of embodiments of the present invention to validate the use of NLpep86 as a tag to monitor expression levels of proteins degraded by the proteasome. To do this, Nlpep86 was fused to firefly luciferase variants that were also fused to either one or more PEST, CL1 or ubiquitin sequences (pBC21, 22, 24-29). Each of these constructs is expected to undergo proteasome-mediated turnover to varying degrees following expression from a mutant CMV promoter (d1CMV).
The constructs pBC21, 22, 24-29 and control constructs expressing untagged firefly luciferase or untagged firefly luciferase fused to a PEST sequence (ATG082 and ATG083) were transiently transfected into HELA cells plated at 10,000 cells per well in a 96-well plate using 100 μL of DMEM+10% FBS. […] Protein expression levels were quantified in replicate wells for each construct by detecting firefly luciferase activity or by adding a detection reagent containing NLpoly11S (purified NLpoly11S added to NanoGlo®).
After a 48 hour incubation, 100 uL NanoGlo® […] reagent (90 ul of NLpoly11S in 50 ml of NanoGlo® assay reagent was added to each well and incubate for 3 minutes with shaking. Luminescence was then read on GloMax luminometer (0.5 sec/well).

NLpoly11S [1] = experiment: Dark and quencher peptides: background signal from NLpoly11S (Example 153); type: biochemical; conditions: NLpoly11S in NanoGlo reagent, 5 min
Protocol: A purified sample of NLpoly11S was diluted into NanoGlo reagent to give a final concentration of 2 uM. Pep86 is a high affinity luminogenic peptide and was used to induce maximum signal for NLpoly11S. Pep86 was prepared at 1 nM in PBS (pH 7.2) for a working solution. Dark peptide and quencher peptides (FIG. 180) were dissolved to 1 mM (or lower) in either PBS pH 7.2 or 150 mM NH4HCO3 and added in equal volume to the NanoGlo/NLpoly11S and then samples were read on a Tecan Infinite F500 reader using a 5 min time point.

NLpoly 5P = experiment: Titration of NLpoly 5P with NLpep88-HT (Example 47); type: biochemical; conditions: serial dilutions of NLpep88-HT lysate
NLpoly11S [2] = experiment: Binding of NLpoly11S to synthetic NLPep78/79 and N- or C-terminal HaloTag fusions (Examples 107, 108); conditions: E. coli lysates, NanoGlo + 100 uM Fz
Protocol: (§1) Fusions of NLpep78-HaloTag (78-HT) and HaloTag-NLPep78 (HT-78) were quantitated, with a GST-HaloTag® fusion (GST-HT) as a control, by labeling E. coli lysates with the HaloTag-TMR® ligand, separated by SDS-PAGE, and scanned on Typhoon. A standard curve was then created using known concentrations of GST-HT standard, and band intensities of 78-HT and HT-78 were used to determine their concentrations.
(§2) E. coli lysates containing NLpoly11S were diluted 1:107 into PBS pH 7+0.1% Prionex. Serial dilutions of 78-HT, HT-78, and synthetic NLpep78 were made in PBS pH 7+0.1% Prionex. 20 uL NLpoly11S and 20 μL of one of the NLPep were mixed and incubated at ambient temperature for 5 minutes. 40 uL NanoGlo® reagent (Promega Corporation)+100 uM Fz were added, and the samples incubates at ambient temperature for 5 min. Luminescence was measured on GlomaxMulti+ using 0.5 s integration. Data was fit to one-site, specific binding using GraphPad Prism to determine Bmax and Kd.
as §1, with “NLpep79-HaloTag (79-HT)” for “NLpep78-HaloTag (78-HT)”, “HaloTag-NLPep79 (HT-79)” for “HaloTag-NLPep78 (HT-78)”, “79-HT” for “78-HT”, “HT-79” for “HT-78”
as §2, with “79-HT, HT-79,” for “78-HT, HT-78,”, “NLpep79” for “NLpep78”

[3] = system: circularly permuted Nluc (CP Nluc); experiment: Inhibition of circularly permuted NanoLuc luciferase by dark peptides (Example 138); type: biochemical; conditions: synthetic dark peptide dose-response, NanoGlo reagent, 5 min
Protocol: Recombinant CP Nluc was prepared as a soluble fraction of an E. coli 5×-concentrated lysate (T7-promoter; overnight expression). A 10,000-fold dilution of the CP Nluc in Assay Buffer (PBS pH 7/0.01% Prionex/1 mM DTT/0.005% Tergitol) was used. Synthetically-derived dark peptides were prepared across a range of concentrations, also in the Assay Buffer. Reactions were set up using 30 μL of CP NLuc and 60 μL of Dark peptide and assayed by adding 90 μL NanoGlo® assay reagent (Promega Corporation). Luminescence was measured (5 min) on a Tecan Infinite F500 reader (100 ms integration). Three replicates were used for Dark peptide samples. Two replicates were used for buffer controls (acetic acid from peptide stocks).

NLpoly11S and NLpep114 = experiment: Inhibition of NLpoly11S/NLpep114 binding by dark peptides (Examples 136, 137); type: biochemical; conditions: for Signal of dark peptide with NLpoly11S on its own: no NLpep114 (Example 137)
Protocol: In FIG. 183A, 50 nM NLpoly11S was mixed with […] NLpep114 and 37.5 μM dark peptide (DP) candidate (Q-162, A-162, K-162 or E-162). NanoGlo® assay reagent (Promega Corporation) was added and incubated for 5 minutes. Luminescence was detected. In FIG. 183B, 50 nM NLpoly11S in assay buffer (PBS pH7+0.01% Prionex+1 mM DTT+0.005% Tergitol) was mixed with 7.5 μM NLpep114 (also in assay buffer) and variable amounts of dark peptide (DP) candidates Q-162 or K-162 (also in assay buffer). NanoGlo® assay reagent (Promega Corporation) was added and incubated for 5 minutes. Luminescence was detected on a Tecan Infinite F500 reader; 100 ms integration time; 5 min time point used.
In FIG. 184A, 5 nM NLpoly11S was mixed with 500 nM NLpep114 and variable amounts of a dark peptide (DP) candidate Q-162 or A-162 (n=3). NanoGlo® assay reagent (Promega Corporation) was added and incubated for 5 minutes. Luminescence was detected.
In FIG. 184B, 5 nM NLpoly11S in assay buffer was mixed with variable amounts of dark peptide (DP) candidates Q-162 or A-162 in assay buffer (no NLpep114)(n=3). NanoGlo® assay reagent (Promega Corporation) was added and incubated for 5 minutes. Luminescence was detected.

[4] = system: wt Oplophorus 157-169 peptide; experiment: Relative specific activity in HEK293T lysates (Example 143); type: biochemical; conditions: averages of Vmax and Bmax normalized to NanoLuc
Protocol: Each clone was inserted into pFN21A HaloTag® CMV Flexi® Vector (Promega G2821), and lysates were prepared as follows: 3 ml HEK293T cells that have been diluted to a concentration of 200,000 cells/ml (600,000 cells total) were plated into each well of a 6-well plate and grown overnight at 37° C. in a CO2 incubator. The following day transfection complexes of each DNA were prepared by combining […] of DNA, Opti-MEM® (Life Technologies 11058-021) to a final volume of 310 μl and 20 μl of FuGENE® HD (Promega E231a). The transfection complexes were incubated for 20 minutes and then 150 μl of each complex added in duplicate to cells. The cells were grown overnight 37° C. in a CO2 incubator. The following day, the cells were washed cells with DPBS (Life Technologies 14190-144), and 1 ml fresh DPBS added. Cells were frozen to lyse and then thawed for testing. Duplicate transfection reactions lysates were combined.
In order to compare the specific activities of Nluc (full length enzyme) to wt Oplophorusl-156 and NLpoly11S in combination with wt Oplophorus 157-169 peptide (binary proteins), substrate titrations were run for all of the samples, but for the binary samples substrate titrations were run at multiple peptide concentrations. Using this format, it was possible to calculate a Vmax value for Nluc and both Vmax and Bmax values for NLpoly11S and wt Oplophorus 1-156. Three separate experiments were run using this format and Vmax and Bmax values were normalized to the Vmax of NanoLuc. Relative specific activities (calculated as averages of Vmax and Bmax) are normalized to NanoLuc.

[5] = high purity (>95%) peptides, 5 nM NLpoly11S, 500 nM NLpep114 (Example 137)

## COc1cc2c(cc1-c1c(C)noc1C)ncc1[nH]c(=O)n([C@H](C)c3ccccn3)c12 [IBET-151]
BRD4/Histone H3.3; 0-500 nM IBET-151, time course
  Time within which the decline in luminescence occurs: ≤ 3 h
BRD4/Histone H3.3; 0 to 10 μM, 4 h at 37° C.
  Effect on luminescence of NLpoly11S-BRD4 / Histone H3.3-NLpep114: dose-dependent decline in luminescence

## BC21: MVSGWRLFKKIS-GGSGGGGSGG-Fluc
HELA cells
  Relative brightness of construct (Fluc and NLpep86 signals): brightest

## BC26: MVSGWRLFKKIS-GGSGGGGSGG-Fluc-CP
HELA cells
  Relative brightness of construct (Fluc and NLpep86 signals): least bright

## DAB-GWALFKK ({Dabcyl′}-GWALFKK) [Dabcyl-GWALFKK]
NLpoly11S [1]
  Background luminescence generated by NLpoly11S in the absence of other luminogenic peptide: reduce the background luminescence generated by NLpoly11S

## GWALFKK
NLpoly11S [1]
  Background luminescence generated by NLpoly11S in the absence of other luminogenic peptide: reduce the background luminescence generated by NLpoly11S

## NLpep88: NLpep78 with Gly as 6th residue instead of Arg, HT fusion lysate (MNVSGWGLFKKISN; also: HT fusion (lysate))
NLpoly 5P
  Luminescence with NLpoly 5P: no increase in luminescence above 5P alone at lower concentrations

## NVSGWRLFKKISN [NLPep78]
NLpoly11S [2]
  Binding affinity to NLpoly11S: synthetic vs N- or C-terminal HaloTag fusion: not found to change significantly
  Bmax with NLpoly11S when NLPep at the C-terminus of HaloTag: reduced

## NVTGYRLFKKISN [NLPep79]
NLpoly11S [2]
  Binding affinity to NLpoly11S: synthetic vs N- or C-terminal HaloTag fusion: not found to change significantly
  Bmax with NLpoly11S when NLPep at the C-terminus of HaloTag: reduced

## VSGWALFKKIS [Ala-162]
[3]
  Inhibition of generation of luminescence by CP Nluc: > 2 logs
NLpoly11S and NLpep114; 5 nM NLpoly11S
  Signal of dark peptide with NLpoly11S on its own: subtle at best
NLpoly11S and NLpep114; [5]
  Inhibition of binding between NLpoly11S and NLpep114: dose-dependent
NLpoly11S and NLpep114; high purity (>95%) peptides, 5 nM NLpoly11S, 500 nM NLpep114 (Example 137), listed as Ala peptide
  Inhibition of binding between NLpoly11S and NLpep114: most potent as an inhibitor

## VSGWQLFKKIS [Gln-162]
[3]
  Inhibition of generation of luminescence by CP Nluc: > 1 logs
NLpoly11S and NLpep114; 5 nM NLpoly11S
  Signal of dark peptide with NLpoly11S on its own: produces a signal on its own in a dose-dependent manner
NLpoly11S and NLpep114; array peptides, 50 nM NLpoly11S, 7.5 μM NLpep114 (Example 136)
  Inhibition of binding between NLpoly11S and NLpep114: dose-dependent
NLpoly11S and NLpep114; [5]
  Inhibition of binding between NLpoly11S and NLpep114: dose-dependent

## VTGWALFEEIL
NLpoly11S [1]
  Luminescence relative to background (NLpoly11S alone; no peptide control): induce luminescence over background

## VTGYALFEEIL
NLpoly11S [1]
  Luminescence relative to background (NLpoly11S alone; no peptide control): induce luminescence over background

B1: NanoLuc: full-length NanoLuc luciferase (Promega), SEQ ID NO: 2157 (protein)
chain: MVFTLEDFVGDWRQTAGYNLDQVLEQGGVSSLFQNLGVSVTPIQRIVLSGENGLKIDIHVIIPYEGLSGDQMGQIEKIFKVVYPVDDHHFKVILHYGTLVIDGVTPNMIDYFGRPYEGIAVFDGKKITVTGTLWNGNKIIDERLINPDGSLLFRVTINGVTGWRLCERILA
[4]
  Relative specific activity (*with wt 157-169 peptide): 1.00

B2: wt 1-156: Wild-Type Oplophorus Luciferase Residues 1-156 (protein)
chain: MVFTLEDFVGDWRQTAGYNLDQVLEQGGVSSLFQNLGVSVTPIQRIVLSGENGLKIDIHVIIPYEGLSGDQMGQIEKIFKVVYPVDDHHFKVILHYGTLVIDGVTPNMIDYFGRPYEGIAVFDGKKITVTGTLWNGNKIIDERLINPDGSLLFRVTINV
[4]
  Relative specific activity (*with wt 157-169 peptide): 0.07*

— US12366572B2, “Activation of bioluminescence by structural complementation” (Promega Corporation, priority 2013, dated 2025)
